Test results published in ChEMBL document CHEMBL1201862, “PubChem BioAssay data set” (2004).
Active and inactive are the calls of the source.

Columns and labels:
Cytochrome P450 3A4 [1] = target: T1, Cytochrome P450 3A4 (Homo sapiens, UniProt P08684); conditions: Potency
Cytochrome P450 2C9 [2] = target: T2, Cytochrome P450 2C9 (Homo sapiens, UniProt P11712); conditions: Potency
Prothrombin = Prothrombin (Homo sapiens, UniProt P00734); assay: Thrombin 1536 HTS Dose Response Confirmation. [Related pubchem assays: 1046 (Thrombin 1536 HTS; hits were confirmed in this assay)]; format: functional
Saccharomyces cerevisiae = assay: NALP1 inhibitor project selectivity study, Caspase-1/ASC signal blockade IC50 in S. cerevisiae (AID 488863); format: functional, organism-based
[3] = target: NACHT, LRR and PYD domains-containing protein 1 (Homo sapiens, UniProt Q9C000); assay: NALP1 inhibitors in yeast, dose response, luminescent (AID 488860); format: functional
NACHT, LRR and PYD domains-containing protein 1, sequence (Q9C000 1-1212 limits assumed): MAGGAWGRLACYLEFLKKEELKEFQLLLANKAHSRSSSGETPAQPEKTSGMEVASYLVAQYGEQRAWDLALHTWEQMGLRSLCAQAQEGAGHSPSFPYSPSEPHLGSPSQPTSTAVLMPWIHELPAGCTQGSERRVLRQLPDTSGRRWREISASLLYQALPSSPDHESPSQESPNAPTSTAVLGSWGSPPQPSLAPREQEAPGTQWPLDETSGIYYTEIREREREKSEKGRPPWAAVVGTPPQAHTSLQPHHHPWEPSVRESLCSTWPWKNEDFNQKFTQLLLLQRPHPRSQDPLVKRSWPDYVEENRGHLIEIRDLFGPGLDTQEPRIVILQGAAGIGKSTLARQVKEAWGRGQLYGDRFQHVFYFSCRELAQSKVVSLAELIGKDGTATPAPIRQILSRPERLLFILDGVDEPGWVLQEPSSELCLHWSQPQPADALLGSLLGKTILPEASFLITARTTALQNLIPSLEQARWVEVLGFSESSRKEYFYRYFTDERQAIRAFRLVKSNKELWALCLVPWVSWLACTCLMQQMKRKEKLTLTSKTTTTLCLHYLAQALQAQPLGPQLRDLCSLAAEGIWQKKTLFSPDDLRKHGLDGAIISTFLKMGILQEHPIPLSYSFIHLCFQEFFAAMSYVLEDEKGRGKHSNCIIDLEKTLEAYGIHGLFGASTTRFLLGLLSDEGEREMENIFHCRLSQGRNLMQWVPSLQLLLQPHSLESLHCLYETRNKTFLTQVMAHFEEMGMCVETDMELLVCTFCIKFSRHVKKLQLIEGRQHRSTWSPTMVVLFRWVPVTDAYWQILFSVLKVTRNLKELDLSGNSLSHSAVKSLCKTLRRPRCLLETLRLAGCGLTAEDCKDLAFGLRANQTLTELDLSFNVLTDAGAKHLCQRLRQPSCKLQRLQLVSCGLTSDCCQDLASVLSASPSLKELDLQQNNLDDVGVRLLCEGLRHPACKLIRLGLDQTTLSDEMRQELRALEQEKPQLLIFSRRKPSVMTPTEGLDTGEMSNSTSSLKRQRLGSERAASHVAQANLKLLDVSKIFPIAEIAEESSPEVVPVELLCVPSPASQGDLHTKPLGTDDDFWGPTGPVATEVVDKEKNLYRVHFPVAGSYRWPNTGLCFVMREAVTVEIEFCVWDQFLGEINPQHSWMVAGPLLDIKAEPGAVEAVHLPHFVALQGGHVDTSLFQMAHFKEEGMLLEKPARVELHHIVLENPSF
NACHT, LRR and PYD domains-containing protein 1, sequence (Q9C000 1213-1473 limits assumed): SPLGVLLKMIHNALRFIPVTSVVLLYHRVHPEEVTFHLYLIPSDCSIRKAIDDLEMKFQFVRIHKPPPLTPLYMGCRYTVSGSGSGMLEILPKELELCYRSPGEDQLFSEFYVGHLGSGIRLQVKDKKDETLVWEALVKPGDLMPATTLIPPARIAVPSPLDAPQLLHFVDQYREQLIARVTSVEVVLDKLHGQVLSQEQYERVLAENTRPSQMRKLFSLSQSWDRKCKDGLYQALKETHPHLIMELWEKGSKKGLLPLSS

Cytochrome P450 2C9 [4] = target: T2, Cytochrome P450 2C9
Cytochrome P450 3A4 [5] = target: T1, Cytochrome P450 3A4
Trypsin = Trypsin (Sus scrofa, UniProt P00761); assay: porcine trypsin inhibitors, dose response, selectivity assay for Rce1 protease inhibitor project, biochemical, quenched peptide fluorescence, cherry-pick (AID 488789)
Trypsin, sequence (P00761 whole entry): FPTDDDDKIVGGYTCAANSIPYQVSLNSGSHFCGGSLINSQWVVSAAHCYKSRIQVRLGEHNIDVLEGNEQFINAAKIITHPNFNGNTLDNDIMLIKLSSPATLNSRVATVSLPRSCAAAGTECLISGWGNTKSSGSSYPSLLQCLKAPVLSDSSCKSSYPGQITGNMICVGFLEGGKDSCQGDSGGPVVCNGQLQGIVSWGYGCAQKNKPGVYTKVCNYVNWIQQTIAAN

CAAX prenyl protease 2 [6] = target: T3, CAAX prenyl protease 2 (Homo sapiens, UniProt Q9Y256); assay: human Rce1 protease inhibitors, dose response, biochemical, yeast membranes, quenched-peptide fluorescence, cherry-pick (AID 588849)
T3 sequence (Q9Y256 whole entry): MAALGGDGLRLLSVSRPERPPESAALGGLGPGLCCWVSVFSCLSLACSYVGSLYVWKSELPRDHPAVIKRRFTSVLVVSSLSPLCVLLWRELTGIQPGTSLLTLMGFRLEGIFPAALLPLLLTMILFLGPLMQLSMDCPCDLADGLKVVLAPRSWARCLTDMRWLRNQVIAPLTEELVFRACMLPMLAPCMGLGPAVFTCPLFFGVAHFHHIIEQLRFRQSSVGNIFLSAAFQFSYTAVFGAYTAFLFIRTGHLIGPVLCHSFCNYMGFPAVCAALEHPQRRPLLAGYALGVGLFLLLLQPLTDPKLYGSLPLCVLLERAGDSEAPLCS

Streptokinase A = target: T4, Streptokinase A (Streptococcus pyogenes serotype M1, UniProt P10520); assay: S. pyogenes streptokinase expression inhibitors, potency, dose response, plasminogen activation absorbance, OD405 (AID 1914); format: functional, Streptococcus pyogenes M1 GAS;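 also: secreted streptokinase activity via plasminogen activation per viability signal from cell pellet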
T4 sequence (P10520 whole entry): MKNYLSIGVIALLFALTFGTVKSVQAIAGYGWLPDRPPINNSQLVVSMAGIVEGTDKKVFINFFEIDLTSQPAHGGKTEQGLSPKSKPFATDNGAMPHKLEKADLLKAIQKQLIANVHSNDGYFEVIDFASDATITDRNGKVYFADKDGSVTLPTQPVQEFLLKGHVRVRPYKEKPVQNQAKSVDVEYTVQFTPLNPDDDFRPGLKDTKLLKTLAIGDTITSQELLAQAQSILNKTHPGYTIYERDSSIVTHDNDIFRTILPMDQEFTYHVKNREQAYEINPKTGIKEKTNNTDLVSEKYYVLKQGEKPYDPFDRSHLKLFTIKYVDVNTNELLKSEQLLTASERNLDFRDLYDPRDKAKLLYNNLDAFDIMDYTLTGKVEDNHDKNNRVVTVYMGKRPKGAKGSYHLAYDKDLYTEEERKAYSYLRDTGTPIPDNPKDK

[7] = system: Streptococcus sp. 'group A'; assay: growth inhibition of control SK(-) GAS strain, dose response, counter-screen for streptokinase expression inhibitor project, luminescence, kanamycin, BacTiterGlo, confirmation (AID 1900); format: functional, organism-based
Streptococcus = assay: Group A Streptococcus viability loss, dose response, counter-screen for streptokinase expression inhibitor project, luminescence, BacTiterGlo (AID 1915); format: functional, organism-based;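 also: potency for reduction of bacterial viability or growth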
CAAX prenyl protease 2 [8] = target: CAAX prenyl protease 2 (Saccharomyces cerevisiae S288c, UniProt Q03530); format: biochemical
CAAX prenyl protease 2 (Saccharomyces cerevisiae S288c, UniProt Q03530), sequence (Q03530 whole entry): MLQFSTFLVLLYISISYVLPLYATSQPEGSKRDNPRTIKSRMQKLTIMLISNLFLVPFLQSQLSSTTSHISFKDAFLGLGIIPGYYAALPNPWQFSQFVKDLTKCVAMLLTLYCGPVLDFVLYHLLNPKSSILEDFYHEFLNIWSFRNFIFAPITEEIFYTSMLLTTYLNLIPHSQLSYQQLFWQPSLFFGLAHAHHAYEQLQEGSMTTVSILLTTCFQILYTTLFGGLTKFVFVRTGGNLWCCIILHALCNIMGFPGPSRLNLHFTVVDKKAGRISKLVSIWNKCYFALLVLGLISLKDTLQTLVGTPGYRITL

[9] = target: Voltage-dependent T-type calcium channel subunit alpha-1H (Homo sapiens, UniProt O95180); format: functional;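 also: channel activity triggered by adding a high calcium stimulation buffer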
Cytochrome P450 3A4 [10] = target: T1, Cytochrome P450 3A4; remark: listed apart in the source
Cytochrome P450 1A2 = target: T5, Cytochrome P450 1A2 (Homo sapiens, UniProt P05177);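 also: PubChem cytochrome P450 panel assay, CYP1A2 panel member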
T5 sequence (P05177 whole entry): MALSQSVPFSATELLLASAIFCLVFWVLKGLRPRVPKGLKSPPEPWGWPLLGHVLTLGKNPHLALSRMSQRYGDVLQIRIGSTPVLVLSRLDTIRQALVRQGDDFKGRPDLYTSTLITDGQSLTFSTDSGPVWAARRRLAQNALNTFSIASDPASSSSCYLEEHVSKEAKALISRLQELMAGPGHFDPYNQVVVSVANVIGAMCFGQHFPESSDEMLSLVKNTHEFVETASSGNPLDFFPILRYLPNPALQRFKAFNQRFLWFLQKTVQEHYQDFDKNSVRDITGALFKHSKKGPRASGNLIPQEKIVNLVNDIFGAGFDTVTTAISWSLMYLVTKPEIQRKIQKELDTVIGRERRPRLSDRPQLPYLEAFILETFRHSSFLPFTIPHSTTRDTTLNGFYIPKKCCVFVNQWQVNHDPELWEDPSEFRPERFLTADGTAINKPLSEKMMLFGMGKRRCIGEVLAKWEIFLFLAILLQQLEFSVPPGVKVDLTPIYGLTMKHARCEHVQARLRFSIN

Cytochrome P450 2C9 [11] = target: T2, Cytochrome P450 2C9; remark: listed apart in the source
[12] = target: Peroxisome proliferator-activated receptor gamma/Nuclear receptor coactivator 1 (Homo sapiens, UniProt P37231); format: functional;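 also: agonist potency as compounds enhance coactivator SRC-1 recruitment to PPARgamma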
[13] = target: Peroxisome proliferator-activated receptor gamma/Nuclear receptor coactivator 3 (Homo sapiens, UniProt P37231); format: functional;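 also: agonist potency for raising coactivator recruitment to the receptor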
[14] = target: Peroxisome proliferator-activated receptor gamma/Nuclear receptor coactivator 2 (Homo sapiens, UniProt P37231); format: functional;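 also: agonist potency for raising coactivator recruitment to the receptor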
[15] = A Cell Based Secondary Assay To Explore Cytotoxicity of Compounds that Sensitize Mycobacterium Tuberculosis to Beta-Lactam Antibiotics.; format: functional
NS3 = NS3 (Hepatitis C virus, UniProt A3EZJ3); assay: PubChem AID 2173; set-up: species or system Hepacivirus hominis
NS3, sequence (A3EZJ3 whole entry): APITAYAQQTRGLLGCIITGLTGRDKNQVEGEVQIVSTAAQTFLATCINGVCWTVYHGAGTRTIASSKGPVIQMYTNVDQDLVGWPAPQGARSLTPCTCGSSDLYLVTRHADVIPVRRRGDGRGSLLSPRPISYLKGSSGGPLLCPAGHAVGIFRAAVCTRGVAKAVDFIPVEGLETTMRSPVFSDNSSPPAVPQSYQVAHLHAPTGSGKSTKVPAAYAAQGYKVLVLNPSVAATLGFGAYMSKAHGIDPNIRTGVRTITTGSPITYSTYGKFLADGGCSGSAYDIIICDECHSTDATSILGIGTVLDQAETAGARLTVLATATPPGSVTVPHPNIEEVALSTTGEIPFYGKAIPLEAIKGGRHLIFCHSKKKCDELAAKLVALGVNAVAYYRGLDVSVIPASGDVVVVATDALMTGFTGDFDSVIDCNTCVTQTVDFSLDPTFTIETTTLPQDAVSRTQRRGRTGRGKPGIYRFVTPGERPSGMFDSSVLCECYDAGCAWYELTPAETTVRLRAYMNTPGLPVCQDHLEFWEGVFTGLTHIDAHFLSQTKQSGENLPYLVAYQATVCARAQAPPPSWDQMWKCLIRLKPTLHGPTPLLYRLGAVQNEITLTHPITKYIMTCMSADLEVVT

[16] = target: Luciferin 4-monooxygenase (Photinus pyralis, UniProt P08659); assay: Counter Screen for Luciferase-based Assay Positives. [Related pubchem assays: 620, 618, 411 ]
HT-1080 = assay: cytotoxicity in HT1080 fibrosarcoma cells, cell-based, fluorescence readout (AID 620); format: functional; conditions: Homo sapiens
[17] = target: T6, Calpain-2 catalytic subunit (Sus scrofa, UniProt P43367); assay: pig calpain II inhibitor potency, dose response, biochemical, fluorogenic peptide substrate (AID 1420); format: functional
T6 sequence (P43367 whole entry): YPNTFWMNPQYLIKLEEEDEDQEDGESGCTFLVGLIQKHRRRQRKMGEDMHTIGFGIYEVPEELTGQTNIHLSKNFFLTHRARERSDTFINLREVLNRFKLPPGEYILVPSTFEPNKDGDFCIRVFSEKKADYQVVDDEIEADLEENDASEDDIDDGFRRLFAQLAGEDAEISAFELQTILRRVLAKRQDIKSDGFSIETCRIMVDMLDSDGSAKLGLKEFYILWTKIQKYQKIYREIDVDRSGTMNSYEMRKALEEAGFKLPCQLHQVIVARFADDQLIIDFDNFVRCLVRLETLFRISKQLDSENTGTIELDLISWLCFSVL

Coagulation factor XII = Coagulation factor XII (Homo sapiens, UniProt P00748); format: functional;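 also: activated factor XIIa alpha cleaving a fluorogenic AMC peptide substrate; inhibitor potency from loss of enzyme activity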
Coagulation factor XII, sequence (P00748 20-372 limits assumed): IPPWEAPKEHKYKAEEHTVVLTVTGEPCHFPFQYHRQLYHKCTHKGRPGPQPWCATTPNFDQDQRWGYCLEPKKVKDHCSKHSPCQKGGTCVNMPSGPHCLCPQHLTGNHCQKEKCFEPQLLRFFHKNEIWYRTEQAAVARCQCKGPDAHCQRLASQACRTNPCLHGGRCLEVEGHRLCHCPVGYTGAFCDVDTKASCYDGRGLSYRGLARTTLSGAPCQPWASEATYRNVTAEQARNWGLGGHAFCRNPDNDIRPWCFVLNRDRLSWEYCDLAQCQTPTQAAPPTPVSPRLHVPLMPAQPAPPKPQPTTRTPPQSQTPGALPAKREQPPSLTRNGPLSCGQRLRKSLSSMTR
Coagulation factor XII, sequence (P00748 373-615 limits assumed): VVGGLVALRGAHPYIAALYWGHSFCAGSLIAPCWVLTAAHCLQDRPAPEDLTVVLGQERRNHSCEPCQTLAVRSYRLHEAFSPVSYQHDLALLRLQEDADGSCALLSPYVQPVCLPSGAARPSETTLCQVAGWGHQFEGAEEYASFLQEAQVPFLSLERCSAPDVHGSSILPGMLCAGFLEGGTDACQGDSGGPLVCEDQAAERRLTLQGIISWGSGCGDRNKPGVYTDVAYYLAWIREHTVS

[18] = target: T7, Nucleotide-binding oligomerization domain-containing protein 1 (Homo sapiens, UniProt Q9Y239); assay: NOD1 signaling inhibitors, SAR follow-up, revised (AID 2333); format: functional
T7 sequence (Q9Y239 whole entry): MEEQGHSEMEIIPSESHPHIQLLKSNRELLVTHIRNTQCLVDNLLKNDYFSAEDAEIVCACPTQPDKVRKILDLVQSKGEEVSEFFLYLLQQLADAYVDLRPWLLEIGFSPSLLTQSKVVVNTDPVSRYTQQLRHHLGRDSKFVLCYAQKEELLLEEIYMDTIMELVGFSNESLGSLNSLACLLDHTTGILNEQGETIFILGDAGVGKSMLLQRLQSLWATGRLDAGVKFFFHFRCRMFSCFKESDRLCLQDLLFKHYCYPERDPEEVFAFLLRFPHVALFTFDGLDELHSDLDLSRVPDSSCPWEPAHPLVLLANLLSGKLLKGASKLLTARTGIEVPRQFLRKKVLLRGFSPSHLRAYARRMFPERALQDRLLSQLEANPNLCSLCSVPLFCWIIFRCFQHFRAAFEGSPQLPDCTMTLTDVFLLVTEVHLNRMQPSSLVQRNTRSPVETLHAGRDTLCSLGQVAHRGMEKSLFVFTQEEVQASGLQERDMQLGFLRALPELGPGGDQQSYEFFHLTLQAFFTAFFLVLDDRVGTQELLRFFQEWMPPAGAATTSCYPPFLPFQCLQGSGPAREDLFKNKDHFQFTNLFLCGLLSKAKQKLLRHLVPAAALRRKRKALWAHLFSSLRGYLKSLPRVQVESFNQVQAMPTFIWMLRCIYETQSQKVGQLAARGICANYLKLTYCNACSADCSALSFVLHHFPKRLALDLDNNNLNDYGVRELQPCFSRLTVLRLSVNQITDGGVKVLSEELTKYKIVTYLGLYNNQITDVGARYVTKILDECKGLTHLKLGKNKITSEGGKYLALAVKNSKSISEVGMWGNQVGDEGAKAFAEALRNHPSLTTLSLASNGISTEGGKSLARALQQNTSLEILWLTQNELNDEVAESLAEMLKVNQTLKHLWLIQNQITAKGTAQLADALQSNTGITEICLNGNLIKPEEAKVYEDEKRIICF

Tumor necrosis factor = Tumor necrosis factor (Homo sapiens, UniProt P01375); assay: TNFa-triggered NF-kB activation inhibitors, SAR follow-up, cell-based, revised (AID 2337); format: functional
Tumor necrosis factor, sequence (P01375 whole entry): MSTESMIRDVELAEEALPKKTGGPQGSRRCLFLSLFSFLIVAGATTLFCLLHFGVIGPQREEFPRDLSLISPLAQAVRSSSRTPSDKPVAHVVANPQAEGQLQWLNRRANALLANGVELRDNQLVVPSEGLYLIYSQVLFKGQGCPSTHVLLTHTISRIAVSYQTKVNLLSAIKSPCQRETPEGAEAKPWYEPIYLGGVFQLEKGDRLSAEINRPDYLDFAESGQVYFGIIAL

HEK293 = assay: cells; conditions: Homo sapiens;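 also: cells exposed to compound for 14 hours overnight before viability readout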
[19] = target: Phosphoethanolamine/phosphocholine phosphatase (Homo sapiens, UniProt Q8TCT1); assay: SAR assay for compounds that inhibit PHOSPHO1. [Related pubchem assays (depositor defined):AID1545, AID1565, AID1574]
Phosphoethanolamine/phosphocholine phosphatase, sequence (Q8TCT1 whole entry): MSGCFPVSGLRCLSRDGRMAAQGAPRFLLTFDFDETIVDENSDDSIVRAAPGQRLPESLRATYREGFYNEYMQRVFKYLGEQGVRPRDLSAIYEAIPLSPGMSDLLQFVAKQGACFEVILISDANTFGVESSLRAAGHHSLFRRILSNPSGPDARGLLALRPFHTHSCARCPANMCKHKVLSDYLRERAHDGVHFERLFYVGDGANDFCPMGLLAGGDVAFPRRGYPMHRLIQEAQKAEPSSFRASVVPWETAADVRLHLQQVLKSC

T1 sequence (P08684 whole entry): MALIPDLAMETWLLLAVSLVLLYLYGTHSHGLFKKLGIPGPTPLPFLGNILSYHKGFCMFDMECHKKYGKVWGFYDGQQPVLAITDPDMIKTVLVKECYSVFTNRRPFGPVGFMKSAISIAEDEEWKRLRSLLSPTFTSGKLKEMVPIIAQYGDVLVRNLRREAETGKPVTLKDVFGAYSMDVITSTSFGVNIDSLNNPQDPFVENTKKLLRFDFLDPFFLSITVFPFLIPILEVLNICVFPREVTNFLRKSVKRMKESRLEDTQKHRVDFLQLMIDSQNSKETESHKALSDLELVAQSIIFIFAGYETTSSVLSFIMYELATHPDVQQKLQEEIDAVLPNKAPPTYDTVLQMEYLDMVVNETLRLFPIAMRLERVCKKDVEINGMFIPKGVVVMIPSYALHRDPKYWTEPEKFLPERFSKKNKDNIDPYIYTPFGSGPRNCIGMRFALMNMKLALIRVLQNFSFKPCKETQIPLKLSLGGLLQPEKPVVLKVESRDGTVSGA
T2 sequence (P11712 whole entry): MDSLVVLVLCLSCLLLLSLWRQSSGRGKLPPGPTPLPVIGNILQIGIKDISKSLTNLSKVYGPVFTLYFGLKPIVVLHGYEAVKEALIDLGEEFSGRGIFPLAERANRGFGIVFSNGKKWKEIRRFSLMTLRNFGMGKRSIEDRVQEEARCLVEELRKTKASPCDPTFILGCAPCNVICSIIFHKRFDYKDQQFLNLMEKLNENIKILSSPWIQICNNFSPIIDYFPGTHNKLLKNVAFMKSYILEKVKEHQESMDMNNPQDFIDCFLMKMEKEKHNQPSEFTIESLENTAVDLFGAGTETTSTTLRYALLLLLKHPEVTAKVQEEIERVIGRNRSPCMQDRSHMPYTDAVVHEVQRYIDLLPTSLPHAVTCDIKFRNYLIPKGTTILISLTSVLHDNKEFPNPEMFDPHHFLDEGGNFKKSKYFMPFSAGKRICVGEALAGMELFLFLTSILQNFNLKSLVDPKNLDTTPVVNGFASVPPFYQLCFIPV

COc1cc2c(cc1O)-c1c(O)c(OC)cc3c1[C@H](C2)N(C)CC3
AC50 (Cytochrome P450 3A4 [1]): 20 µM (inconclusive)
AC50 (Cytochrome P450 2C9 [2]): 31.6 µM (inconclusive)

Cc1ccc2c(c1)c1c3n2CCCNC3CCC1 (stereo not given)
IC50 (Prothrombin): > 50 µM (not active)
IC50 (Saccharomyces cerevisiae): 87.6 µM (active)
IC50 [3]: > 100 µM (inactive)

CC(=O)[C@@H]1CC[C@@H]2[C@@H]3CCC4=CC(=O)CC[C@@]4(C)[C@H]3CC[C@]21C
AC50 (Cytochrome P450 2C9 [4]): 15.8 µM (inconclusive)
AC50 (Cytochrome P450 2C9 [2]): 39.8 µM (inconclusive)
AC50 (Cytochrome P450 3A4 [5]): inconclusive

COc1cc2nc3c(O)n(CCN4CCOCC4)cnc-3c2cc1OC
AC50 (Trypsin): 16.1 µM (active)
AC50 (CAAX prenyl protease 2 [6]): 9.95 µM (active)

CCCCNc1c(-c2ccc(SC(C)CC)c(OC)c2)nc2ccc(C)cn12 (stereo not given)
AC50 (Trypsin): 2.63 µM (active)
AC50 (CAAX prenyl protease 2 [6]): 32.5 µM (active)
EC50 (Streptokinase A): 8.79 µM (active)
EC50 [7]: 3.09 µM (active)
EC50 (Streptococcus): 10.2 µM (active)
AC50 (CAAX prenyl protease 2 [8]): 39.7 µM (active)

O=S(=O)(Nc1ccc(S(=O)(=O)N2CCCCC2)cc1)c1ccc(Br)s1
EC50 [9]: 3.58 µM (active)

c1coc(-c2ccnc3ncnn23)c1
AC50 (CAAX prenyl protease 2 [6]): 3.88 µM (active)
AC50 (CAAX prenyl protease 2 [8]): 24.5 µM (active)

CN(C)c1ccc(/C=C2\SC(=S)N(Nc3ncc(C(F)(F)F)cc3Cl)C2=O)cc1
AC50 (Cytochrome P450 3A4 [10]): 14.1 µM (inconclusive)
AC50 (Cytochrome P450 1A2): 5.01 µM (inconclusive)
EC50 [9]: 2.86 µM (active)
AC50 (Cytochrome P450 2C9 [11]): inconclusive

COc1ccc(-c2cc(-c3cccs3)c(C#N)c(SCC(=O)NCc3ccccc3)n2)cc1
EC50 [12]: 18.8 µM (not active)
EC50 [13]: 22.2 µM (not active)
EC50 [14]: 14.2 µM (not active)

COc1ccc(C(=O)Nc2oc(-c3ccccc3)c(-c3ccccc3)c2C#N)cc1OC
CC50 [15]: > 40 µM (active)

CCc1cc2c(=O)n(Cc3ccco3)c(SCc3c(C)noc3C)nc2s1
IC50 (NS3): 25.6 µM (not active)
EC50 [16]: 0.34 µM (active)
EC50 (HT-1080): 15.3 µM (active)

O=[N+]([O-])c1cc(C(F)(F)F)ccc1NCCc1c[nH]c2ccc(O)cc12
CC50 [15]: > 40 µM (active)
IC50 [17]: 7.48 µM (not active)

C=C(C)C(=O)Nc1nnc(-c2cccs2)s1
IC50 (Saccharomyces cerevisiae): 15 µM (active)
IC50 [3]: 11 µM (active)

O=C(Nc1ncnc2sc3c(c12)CCCCC3)c1ccc(F)cc1
IC50 (Coagulation factor XII): > 50 µM (inactive)

COC(=O)c1c(NC(=O)c2ccc(Cl)cc2)sc2c1CCCC2
IC50 [18]: > 20 µM (inactive)
IC50 (Tumor necrosis factor): > 20 µM (inactive)
IC50 (HEK293): > 20 µM (inactive)

c1ccc(Nc2nc(-c3ccccc3)[n+](-c3ccccc3)s2)cc1
IC50 [19]: 4.99 µM (inactive)

CN(C)c1ccc(C(=S)N2CCOCC2)cc1 [(4-(DIMETHYLAMINO)PHENYL)(MORPHOLINO)METHANETHIONE]
IC50 (Coagulation factor XII): > 50 µM (inactive)
